How the values were obtained:
[1] = system: Mus musculus; experiment: Receptor occupancy of Btk in CIA mouse model at 60 mg/kg/day; format: functional
[2] = target: Proto-oncogene tyrosine-protein kinase Src (Gallus gallus, UniProt P00523, T338G); experiment: Inhibition of chicken c-Src T338G mutant
[3] = target: T1, Proto-oncogene tyrosine-protein kinase Src (Gallus gallus, UniProt P00523); experiment: Inhibition of chicken c-Src
[4] = target: Dual specificity mitogen-activated protein kinase kinase 1 (Homo sapiens, UniProt Q02750); experiment: Inhibition of MEK1
Sequence of Dual specificity mitogen-activated protein kinase kinase 1 (Q02750 whole entry): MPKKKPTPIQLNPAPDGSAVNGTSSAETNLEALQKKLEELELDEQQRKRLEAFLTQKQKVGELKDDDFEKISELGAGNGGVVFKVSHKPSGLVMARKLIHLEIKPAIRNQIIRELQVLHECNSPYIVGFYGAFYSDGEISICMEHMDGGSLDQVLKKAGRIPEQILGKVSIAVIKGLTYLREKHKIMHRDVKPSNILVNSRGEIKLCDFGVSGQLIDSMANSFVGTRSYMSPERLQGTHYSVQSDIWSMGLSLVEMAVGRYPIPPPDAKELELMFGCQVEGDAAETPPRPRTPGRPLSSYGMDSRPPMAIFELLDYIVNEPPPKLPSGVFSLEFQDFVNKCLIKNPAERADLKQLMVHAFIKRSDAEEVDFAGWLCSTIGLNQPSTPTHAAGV

[5] = target: Mitogen-activated protein kinase 1 (Homo sapiens, UniProt P28482); experiment: Inhibition of Erk2
Sequence of Mitogen-activated protein kinase 1 (P28482 whole entry): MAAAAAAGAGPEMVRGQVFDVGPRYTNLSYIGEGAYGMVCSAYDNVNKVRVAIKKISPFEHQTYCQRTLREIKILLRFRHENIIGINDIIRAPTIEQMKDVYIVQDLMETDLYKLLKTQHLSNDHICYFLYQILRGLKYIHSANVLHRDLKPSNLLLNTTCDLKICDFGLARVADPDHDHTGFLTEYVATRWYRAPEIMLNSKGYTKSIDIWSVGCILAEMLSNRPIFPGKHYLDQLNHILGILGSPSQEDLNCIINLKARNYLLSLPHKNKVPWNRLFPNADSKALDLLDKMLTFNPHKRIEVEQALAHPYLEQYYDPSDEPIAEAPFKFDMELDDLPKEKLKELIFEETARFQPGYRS

[6] = target: T2, Dual specificity mitogen-activated protein kinase kinase 4 (Homo sapiens, UniProt P45985); experiment: Inhibition of MKK4
T2 sequence (P45985 whole entry): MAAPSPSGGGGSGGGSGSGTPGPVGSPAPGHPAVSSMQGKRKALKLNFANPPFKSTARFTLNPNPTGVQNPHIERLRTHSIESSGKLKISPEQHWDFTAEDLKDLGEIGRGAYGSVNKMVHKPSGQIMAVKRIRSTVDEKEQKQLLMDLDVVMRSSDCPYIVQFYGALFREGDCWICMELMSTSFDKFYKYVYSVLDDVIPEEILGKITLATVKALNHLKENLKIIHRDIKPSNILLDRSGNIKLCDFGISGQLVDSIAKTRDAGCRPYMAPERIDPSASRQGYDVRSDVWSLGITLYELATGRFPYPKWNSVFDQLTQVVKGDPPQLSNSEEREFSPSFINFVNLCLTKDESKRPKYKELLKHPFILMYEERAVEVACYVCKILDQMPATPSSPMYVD

[7] = target: T3, Dual specificity mitogen-activated protein kinase kinase 7 (Homo sapiens, UniProt O14733); experiment: Inhibition of MEK7
T3 sequence (O14733 whole entry): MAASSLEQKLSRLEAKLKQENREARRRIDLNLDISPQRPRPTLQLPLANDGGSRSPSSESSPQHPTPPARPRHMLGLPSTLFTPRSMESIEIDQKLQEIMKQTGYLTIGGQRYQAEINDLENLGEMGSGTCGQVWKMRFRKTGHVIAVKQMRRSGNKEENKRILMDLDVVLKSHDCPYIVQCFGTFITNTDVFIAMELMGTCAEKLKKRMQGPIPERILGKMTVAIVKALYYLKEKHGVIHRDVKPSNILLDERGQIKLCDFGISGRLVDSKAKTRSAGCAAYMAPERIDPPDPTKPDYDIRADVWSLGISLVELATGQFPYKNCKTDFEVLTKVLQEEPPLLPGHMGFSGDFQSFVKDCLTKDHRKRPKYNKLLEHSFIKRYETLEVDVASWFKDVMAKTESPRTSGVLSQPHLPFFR

[8] = target: T1, Proto-oncogene tyrosine-protein kinase Src; experiment: Inhibition of chicken c-Src using IYGEFKKK peptide as a substrate and [32P]ATP by […]
[9] = target: Mitogen-activated protein kinase kinase kinase 1 (Homo sapiens, UniProt Q13233); experiment: Inhibition of MEKK1
Sequence of Mitogen-activated protein kinase kinase kinase 1 (Q13233 whole entry): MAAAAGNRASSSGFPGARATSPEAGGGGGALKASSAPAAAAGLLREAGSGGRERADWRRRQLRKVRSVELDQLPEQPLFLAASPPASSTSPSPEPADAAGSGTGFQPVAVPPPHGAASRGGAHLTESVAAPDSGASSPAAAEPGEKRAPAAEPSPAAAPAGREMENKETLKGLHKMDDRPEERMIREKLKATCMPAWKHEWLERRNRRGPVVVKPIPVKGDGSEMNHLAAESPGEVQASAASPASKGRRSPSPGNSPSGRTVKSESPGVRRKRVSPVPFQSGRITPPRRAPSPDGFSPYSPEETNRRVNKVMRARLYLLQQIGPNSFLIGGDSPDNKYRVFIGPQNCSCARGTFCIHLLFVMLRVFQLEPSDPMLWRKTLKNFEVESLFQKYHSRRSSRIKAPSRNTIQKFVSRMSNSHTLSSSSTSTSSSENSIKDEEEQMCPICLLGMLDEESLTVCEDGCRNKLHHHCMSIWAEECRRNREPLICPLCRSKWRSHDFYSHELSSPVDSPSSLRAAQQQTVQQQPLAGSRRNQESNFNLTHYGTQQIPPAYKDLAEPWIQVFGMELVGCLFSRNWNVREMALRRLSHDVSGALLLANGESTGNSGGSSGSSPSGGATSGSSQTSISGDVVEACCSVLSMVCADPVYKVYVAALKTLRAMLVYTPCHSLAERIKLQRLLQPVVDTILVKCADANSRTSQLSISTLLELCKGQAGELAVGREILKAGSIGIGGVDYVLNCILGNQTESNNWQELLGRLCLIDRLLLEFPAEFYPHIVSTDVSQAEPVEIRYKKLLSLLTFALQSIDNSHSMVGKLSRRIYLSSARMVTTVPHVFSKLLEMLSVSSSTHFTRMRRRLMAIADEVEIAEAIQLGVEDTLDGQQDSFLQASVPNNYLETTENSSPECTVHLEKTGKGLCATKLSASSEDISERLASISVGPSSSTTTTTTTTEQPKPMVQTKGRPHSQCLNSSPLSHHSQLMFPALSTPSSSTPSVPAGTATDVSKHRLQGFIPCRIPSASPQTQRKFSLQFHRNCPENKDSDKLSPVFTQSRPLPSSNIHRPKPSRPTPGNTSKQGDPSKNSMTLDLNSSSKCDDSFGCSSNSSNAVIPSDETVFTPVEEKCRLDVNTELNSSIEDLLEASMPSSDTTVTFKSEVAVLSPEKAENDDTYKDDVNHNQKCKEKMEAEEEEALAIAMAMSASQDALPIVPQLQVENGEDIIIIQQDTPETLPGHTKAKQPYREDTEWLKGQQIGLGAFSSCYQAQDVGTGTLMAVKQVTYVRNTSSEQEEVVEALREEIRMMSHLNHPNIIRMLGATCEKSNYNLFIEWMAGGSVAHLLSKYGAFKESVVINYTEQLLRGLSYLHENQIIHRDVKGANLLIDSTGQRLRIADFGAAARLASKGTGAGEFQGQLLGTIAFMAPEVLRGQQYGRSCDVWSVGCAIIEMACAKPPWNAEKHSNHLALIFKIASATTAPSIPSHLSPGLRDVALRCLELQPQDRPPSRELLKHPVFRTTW

[10] = target: RAC-alpha serine/threonine-protein kinase (Homo sapiens, UniProt P31749); experiment: Inhibition of human AKT1 using biotinylated GSKalpha peptide (SGRARTSSFA) as a substrate after 1 hr
Sequence of RAC-alpha serine/threonine-protein kinase (P31749 whole entry): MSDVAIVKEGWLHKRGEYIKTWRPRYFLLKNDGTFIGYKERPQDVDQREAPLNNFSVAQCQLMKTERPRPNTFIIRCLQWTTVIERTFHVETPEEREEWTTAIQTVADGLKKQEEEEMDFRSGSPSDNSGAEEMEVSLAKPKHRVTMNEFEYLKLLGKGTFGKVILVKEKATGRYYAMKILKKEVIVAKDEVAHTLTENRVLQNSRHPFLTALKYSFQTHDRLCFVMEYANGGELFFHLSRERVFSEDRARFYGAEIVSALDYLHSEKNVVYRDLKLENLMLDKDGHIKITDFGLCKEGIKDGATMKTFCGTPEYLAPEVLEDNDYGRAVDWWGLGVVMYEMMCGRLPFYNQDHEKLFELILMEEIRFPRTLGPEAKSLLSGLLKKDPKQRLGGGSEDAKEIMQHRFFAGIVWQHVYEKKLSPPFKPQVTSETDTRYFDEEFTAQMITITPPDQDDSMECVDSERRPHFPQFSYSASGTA

C=CC(=O)Nc1cccc(Nc2nc(Nc3ccc(Oc4ccnc(C(=O)NC)c4)cc3)ncc2F)c1 showed an Occ [1] of 70%.
For O=C(Nc1ccc2ncnc(Nc3cccc(Br)c3)c2c1)[C@@H]1O[C@H]1CN1CCCCC1, the IC50 [2] was 1 nM and the IC50 [3] was > 27000 nM.
In the case of CN(C)C/C=C/C(=O)Nc1ccc2ncnc(Nc3cccc(Br)c3)c2c1, the IC50 [2] is reported as 1 nM and the IC50 [3] is reported as > 27000 nM.
COc1cc(O)c2c(c1)/C=C/C[C@H](O)[C@H](O)C(=O)/C=C\C[C@H](C)OC2=O was tested, and the IC50 [4] was 6 nM, the IC50 [5] was 80 nM and the IC50 [6] was > 3000 nM. The IC50 [7] was 300 nM.
C=CS(=O)(=O)Nc1cccc(Cc2nn(C(C)C)c3ncnc(N)c23)c1 was tested, and the IC50 [8] was > 5000 nM.
With CC#CC(=O)Nc1ccc2ncnc(Nc3cccc(Br)c3)c2c1 the IC50 [2] was 1 nM and the IC50 [3] was > 27000 nM.
CCNc1cc(O)c2c(c1)/C=C/C[C@@H](O)[C@H](O)C(=O)/C=C\[C@H](C)[C@H](C)OC2=O gave an IC50 [4] of 5.2 nM and an IC50 [9] of 31 nM.
Molecule CCC[C@H]1O[C@@H]2CC(=O)O[C@@H]2C2=C1C(=O)c1c(O)cccc1C2=O [FRENOLICIN B] has an IC50 [10] of 313 nM.
